Test results reported in the NIST ThermoML archive (doi:10.1021/je101146f).

Experiments:
[1] = Ring tensiometer
[2] = xn = mol fraction of the nth substance listed; details: Ring tensiometer

CCn1cc[n+](C)c1.O=S(=O)([N-]S(=O)(=O)C(F)(F)F)C(F)(F)F
[1]
Details | surface tension liquid-gas [mN/m]
293.15 K | 36.14
298.15 K | 35.9
303.13 K | 35.56
308.15 K | 35.35
313.15 K | 35.1

CCn1cc[n+](C)c1.O=S(=O)([N-]S(=O)(=O)C(F)(F)F)C(F)(F)F + C1CCOC1
surface tension liquid-gas [mN/m], [2]
Details | x1 = 0.1037 | x1 = 0.2024 | x1 = 0.3255 | x1 = 0.3841 | x1 = 0.4425 | x1 = 0.5469 | x1 = 0.6863 | x1 = 0.7697 | x1 = 0.9177 | x1 = 1
293.15 K | 28.72 | 29.94 | 31.05 | 31.62 | 32.12 | 32.98 | 34.07 | 34.55 | 35.65 | 36.14
298.15 K | 28.1 | 29.42 | 30.62 | 31.18 | 31.76 | 32.63 | 33.81 | 34.38 | 35.46 | 35.9
303.13 K | 27.52 | 28.84 | 30.18 | 30.82 | 31.41 | 32.39 | 33.52 | 34.15 | 35.22 | 35.56
308.15 K | 26.88 | 28.33 | 29.84 | 30.52 | 31.07 | 32.08 | 33.26 | 33.92 | 34.98 | 35.35

CCn1cc[n+](C)c1.O=S(=O)([N-]S(=O)(=O)C(F)(F)F)C(F)(F)F + CC#N
surface tension liquid-gas [mN/m], [2]
Details | x1 = 0.0533 | x1 = 0.1886 | x1 = 0.337 | x1 = 0.4724 | x1 = 0.652 | x1 = 0.8245 | x1 = 0.924 | x1 = 1
293.15 K | 30.48 | 32.72 | 34.02 | 34.77 | 35.38 | 35.83 | 35.98 | 36.14
298.15 K | 29.8 | 32.1 | 33.55 | 34.42 | 35.11 | 35.6 | 35.76 | 35.9
303.13 K | 29.26 | 31.63 | 33.15 | 33.99 | 34.8 | 35.29 | 35.5 | 35.56
308.15 K | 28.65 | 31.16 | 32.78 | 33.61 | 34.49 | 34.99 | 35.22 | 35.35
313.15 K | 28.04 | 30.69 | 32.36 | 33.28 | 34.2 | 34.75 | 35 | 35.1

CC#N [acetonitrile]
[1]
Details | surface tension liquid-gas [mN/m]
293.15 K | 28.95
298.15 K | 28.37
303.13 K | 27.66
308.15 K | 27.03
313.15 K | 26.43

CC#N [acetonitrile] + CCn1cc[n+](C)c1.O=S(=O)([N-]S(=O)(=O)C(F)(F)F)C(F)(F)F
[2], x2 = 0
Details | surface tension liquid-gas [mN/m]
293.15 K | 28.95
298.15 K | 28.37
303.13 K | 27.66
308.15 K | 27.03
313.15 K | 26.43

C1CCOC1 [tetrahydrofuran]
[1]
Details | surface tension liquid-gas [mN/m]
293.15 K | 27.31
298.15 K | 26.68
303.13 K | 26.04
308.15 K | 25.38

C1CCOC1 [tetrahydrofuran] + CCn1cc[n+](C)c1.O=S(=O)([N-]S(=O)(=O)C(F)(F)F)C(F)(F)F
[2], x2 = 0
Details | surface tension liquid-gas [mN/m]
293.15 K | 27.31
298.15 K | 26.68
303.13 K | 26.04
308.15 K | 25.38
